Entries after “also recorded” stand apart in the source; their conditions may differ.
Assays:
normal skin = test: pigmentogenic properties on normal skin; assay type: in vivo, human; conditions: 0.5%
Description: The pigmentogenic properties of products 1a and 1b have been tested on normal skin at a concentration of 0.5%.

[1] = mutagenicity (general statements)
normal human skin = test: erythema test on normal human skin (forearm); assay type: in vivo
Protocol: The clinical and therapeutic activity of compounds 1a and 1b has been also measured on human skin. 10 mg of compounds 1a and 1b were diluted in 2 g of a purified lanolin commercially available under the name ROC hydrocerine which was made liquid by heating to 60° C. This local preparation was first tested on normal human skin (of the forearm). An amount of 10 micrograms/cm2 of products 1a and 1b was applied to a circular cutaneous surface 3 cm in diameter. The two products were left on the skin for 2 hours to insure a sufficient cutaneous penetration. […] The same experiment was repeated a second time with irradiation of 20 J/cm2 through a glass plate in order to filter out all the ultraviolet B radiation. […] This erythema, slightly apparent, continued for 18 days. […] The […] result of the reflective photoplethysmograph were totally identical for products 1a and 1b. […] The […] only appeared in doses of irradiation where are twice that customarily used in a therapeutic treatment.

psoriatic plaque = test: therapeutic test on psoriatic plaque, products 1a and 1b; assay type: in vivo, human
Protocol: 10 mg of compounds 1a and 1b were diluted in 2 g of a purified lanolin commercially available under the name ROC hydrocerine which was made liquid by heating to 60° C. Products 1a and 1b have also been tested in the same excipient on a high inflammatory psoriatic plaque. These two products were applied to surfaces having a 3 cm diameter. On a third surface the excipient alone was applied. […] The products and the lanolin alone were applied 2 hours before irradiation. […] This whitening was practically as fast in the zones treated with products 1a and 1b. The zone treated with lanolin alone remained unchanged.

[2] = tested on: Saccharomyces cerevisiae yeast; test: induction of lethal effects in yeast with 365 nm irradiation (UVA); assay type: cell-based
Protocol: (§1) This photobiological activity has in effect been defined by the induction of lethal effects, the induction of "small colony" cytoplasmic mutations (damage in the mitochondrial DNA) and the induction of nuclear mutations (reverse and forward). The experiments were conducted in the customary manner in conformity with the following references:
Thus, the dose of UVA must be between 2.5 and 5 times weaker in the case of compounds 1a and 1b than in the case of 8-MOP to attain the same survival rate.

[3] = tested on: V79 chinese hamster cells; test: antiproliferatory effect: inhibition of colony formation of V79 cells; assay type: cell-based; conditions: 5×10^-6 M
Protocol: The photobiological activity of the two monofunctional componds 1a and 1b have been studied in mammalian cells in vitro in order to determine their antiproliferatory effect.
A diploid strain of V79 chinese hamster cells were used.
The action of the compounds on cell survival (i.e. the antiproliferatory effect) was determined by measuring their power to inhibit the capacity of cells to form colonies. The technique used is that described by C.

[4] = photochemical stability under ultraviolet irradiation; assay type: physicochemical; conditions: free in solution, ultraviolet irradiation up to an incident dose of 27 kJ/m2
synthesis of DNA = test: photosensitizer effect on DNA synthesis in human fibroblasts; assay type: cell-based; conditions: UVA 365 nm
Description: (§2) (F. Bordin, F. Baccichetti and L. Musajo, Experientia 28, 148 (1972)).
(§3) The cells cultivated in Petri dishes having a minimum Eagle medium with 10% embryonic calf serum were marked by precursors which were specific to the exponential phase of growth. The rates of synthesis were estimated by measuring the incorporation of the radioactive precursors in the acid-precipitable material (see S. Nocentini, Biochim. Biophys., Acta 521, 160 (1978)).

[5] = tested on: Saccharomyces cerevisiae yeast; test: induction of forward mutations (resistance to canavanine); assay type: cell-based
Protocol: This photobiological activity has in effect been defined by the induction of lethal effects, the induction of "small colony" cytoplasmic mutations (damage in the mitochondrial DNA) and the induction of nuclear mutations (reverse and forward). The experiments were conducted in the customary manner in conformity with the following references: […]

[6] = tested on: DNA of cells of the wild type; test: direct biochemical verification of cross-linking in DNA of cells treated and irradiated at 365 nm; assay type: cell-based, yeast
Description: Indeed, DNA of cells of the wild type were extracted immediately after treatment with products 1a, 1b at a concentration of 10^-5 M and irradiation with two doses of radiation at 365 nm (30% and 5% survival rate). […] If the DNA contains cross-links it renatures itself and is found in the double chain form separable by gradient density from single chain DNA.

DNA [7] = test: photoaffinity for DNA in vivo; assay type: cell-based, yeast
mitochondrial DNA = test: induction of "small colony" cytoplasmic mutations; assay type: cell-based, Saccharomyces cerevisiae; conditions: in 10% of the survivors
Protocol: as §1
If the induction of cytoplasmic mutations is considered as a function of the survivors, the compounds 1a and 1b which are monofunctional derivatives of psoralen, show in 10% of the survivors a rate of induction of cytoplasmic mutation greater than 50%.

[8] = tested on: haploid strain of Saccharomyces cerevisiae yeast; test: induction of nuclear mutations: His+ reversions; assay type: cell-based; conditions: 5×10^-6 M, same survivor rate
Protocol: as §1
The induction of nuclear mutations (reversions and "forward" mutations) has been determined according to procedures described in the above-mentioned articles.

[9] = spectroscopic absorption properties; assay type: physicochemical; conditions: compared with psoralen
Description: Compounds 1a and 1b have similar spectroscopic properties which differ markedly with respect to those of psoralen.

DNA [10] = test: thermal denaturation-renaturation of DNA modified in the presence of UVA; assay type: biochemical
Description: Experiments of thermal denaturation-renaturation carried out on the DNA Modified by the compound 1a in the presence of UVA (incident dose ranging up to 27 Kj/m2) yielding values of the non-renaturating fraction of 100%.

DNA [11] = test: complexation with DNA by absorption and emission spectroscopy; assay type: binding
synthesis of RNA = test: photosensitizer effect on RNA synthesis in human fibroblasts; assay type: cell-based; conditions: UVA 365 nm
Description: as §2, §3

DNA [12] = test: formation of cross-links in DNA (general statements); assay type: biochemical; conditions: from induction of cytoplasmic and nuclear mutations
yeast mutant pso2 = test: sensitivity of yeast mutant pso2 versus wild type to photo-addition
[13] = 10 micrograms/cm2, UVA 20 J/cm2
[14] = 30 micrograms/cm2, by the tenth treatment
[15] = 30 micrograms/cm2, from the fourth treatment

O=c1oc2cc3occc3cc2c2ccncc12 [Compound 1a, Pyrido (3,4-c) furo (3,2-g) coumarin]
pigmentogenic properties, 1b versus 1a (normal skin): pigmentogenic
pigmentation of normal skin (normal skin; three normal patients, total UVA doses of 140 J/cm2): very slight pigmentation, hardly visible, in only two of the three patients
mutagenicity compared with 3-carbethoxypsoralen (conclusion) [1]: less mutagenic than 3-carbethoxypsoralen
erythema at 5 J/cm2 (normal human skin; 10 micrograms/cm2, 2 hours before UVA 5 J/cm2): no precocious or delayed erythema was observed
duration of erythema (normal human skin; [13]): 18 days
time of appearance of erythema (normal human skin; [13]): 72 h
erythema at 20 J/cm2 (normal human skin; 10 micrograms/cm2, UVA 20 J/cm2 through glass plate): slight erythema
desquamation or local pain (normal human skin; UVA 20 J/cm2): no desquamation or local pain
systolic pulse of the capillaries at erythematic zones (reflective photoplethysmography) (normal human skin; UVA 20 J/cm2): doubling of the systolic pulse
erythematogenicity (conclusion) (normal human skin; in vivo): not erythmatogenic in conditions of irradiation customarily used in human therapy; also recorded: very mildly erythmatogenic
antipsoriatic action, third patient (psoriatic plaque; 30 μg/cm2 two hours before UVA): did not have a detectable antipsoriatic action
erythema or secondary effect during treatments (psoriatic plaque; 30 micrograms/cm2): no erythema or secondary effect was observed
hyperpigmentation (psoriatic plaque; 30 micrograms/cm2): hyperpigmentation was found
total UVA dose to complete whitening (psoriatic plaque; [14]): 50 J/cm2
whitening of treated zones (psoriatic plaque; [14]): complete whitening of the zones treated
decrease of squamae (psoriatic plaque; [15]): slight decrease of the squamae
reduction of infiltration (psoriatic plaque; [15]): tangible reduction of the infiltration
antipsoriatic activity (conclusion) (psoriatic plaque; applied locally): good antipsoriatic activity
photoreactivity compared with 4,5',8-trimethylpsoralen (conclusion) [2]: close to that of 4,5'-8-trimethylpsoralen
induction of lethal effects compared with 8-MOP ([2]; 5×10^-5 M, 365 nm (UVA)): activity close to that of 8-methoxypsoralen
activity on cell survival relative to 8-MOP ([2]; 5×10^-6 M, survival curves): 2.5 times
photodynamic activity (oxygen dependent) on induction of lethal damages ([2]; yeast): do not exert on the yeast photodynamic activity
LD10 (dose which leaves 10% survive) ([3]; UVA): 1800 J/cm2
considerable photosensitivity in V79 cells ([3]; UVA): considerable photosensitivity
relative antiproliferatory effect ([3]; UVA): compared to 8-MOP, a higher antiproliferatory effect; also recorded: comparable to that of bifunctional furocoumarins
diminution of cell survival in absence of radiation ([3]; no radiation): no diminution of cell survival
photochemical stability [4]: good photochemical stability
inhibition capacity (DNA) compared with 3-CPs (synthesis of DNA): much more than 3-CPs
inhibition capacity (DNA) compared with 8-MOP (synthesis of DNA): slightly more powerful than 8-MOP
forward mutations as a function of surviving fractions compared with 3-CPs, 8-MOP and 4,5',8-TMeP [5]: markedly less mutagenic than 3-CPs and the bifunctional compounds 8-MOP and 4,5', 8-TMeP
forward mutations as a function of UVA doses compared with 3-CPs ([5]; 5×10^-6 M versus 3-CPs at 5×10^-5 M): comparable to those obtained with 3-CPs at 5×10^-5 M
form of DNA after renaturation (cross-links) ([6]; 10^-5 M, 365 nm, two doses (30% and 5% survival rate)): remains in single chain form after renaturation
functional type (mono/bifunctional) ([6]; pso2 mutant and direct examination of DNA): mono functional type
photoaffinity for DNA in vivo compared with 3-CPs (DNA [7]): makedly much high than that of monofunctional furocoumarin 3-CPs
photoaffinity for DNA in vivo relative to 8-MOP (DNA [7]): about 10 times
photoaffinity in respect to DNA compared with 8-MOP (conclusion) (DNA [7]): markedly greater than that of 8-MOP
rate of induction of cytoplasmic mutation (mitochondrial DNA): greater than 50%
His+ reversions rate compared with 3-CPs [8]: less than that observed after the treatment with 3-CPs
His+ reversions rate compared with 8-MOP and 4,5',8-TMeP [8]: very much less than that observed after treatment with the bifunctional agents 8-MOP and 4,5', 8-TMeP
coefficient of molecular absorption at 365 nm [9]: notably a higher coefficient of molecular absorption at 365 nm
induction of biadditions on the DNA (DNA [10]): cannot induce biadditions on the DNA
non-renaturating fraction (DNA [10]; UVA incident dose ranging up to 27 kJ/m2): 100%
complexation with DNA (DNA [11]): considerable complexation
solubility in the DNA relative to mixture of alcohol and water (DNA [11]): at least 10 factor
inhibition capacity (RNA) compared with 3-CPs (synthesis of RNA): much more than 3-CPs
inhibition capacity (RNA) compared with 8-MOP (synthesis of RNA): slightly more powerful than 8-MOP
formation of cross-links in the DNA (conclusion) (DNA [12]): incapable of forming cross-links in the DNA
photoreactivity on yeast strains (yeast mutant pso2): very photoreactive
sensitivity of pso2 mutant compared with wild type (yeast mutant pso2; photo-addition): same sensitivity as the wild type
